Assay results from ChEMBL document CHEMBL1909046, “DrugMatrix in vitro pharmacology data”.
pIC50, pKi: −log10 of the molar value.

Tests used:
[1] = target: T1, Type-2 angiotensin II receptor (Homo sapiens, UniProt P50052); assay type: cell-based; conditions: cho-k1; also: in other assays of this panel Not Active means under 50% inhibition at 10 µM
T1 sequence (P50052 whole entry): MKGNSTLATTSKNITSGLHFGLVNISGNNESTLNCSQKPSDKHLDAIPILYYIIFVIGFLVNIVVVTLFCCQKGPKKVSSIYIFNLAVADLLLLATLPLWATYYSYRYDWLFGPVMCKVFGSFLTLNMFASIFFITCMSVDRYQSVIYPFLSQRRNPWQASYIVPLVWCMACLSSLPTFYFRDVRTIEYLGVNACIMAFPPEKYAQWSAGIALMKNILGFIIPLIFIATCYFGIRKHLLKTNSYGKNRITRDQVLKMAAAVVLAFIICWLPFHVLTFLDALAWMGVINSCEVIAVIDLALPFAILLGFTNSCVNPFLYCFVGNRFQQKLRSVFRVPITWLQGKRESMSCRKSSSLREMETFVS

Calcitonin receptor = target: T2, Calcitonin receptor (Homo sapiens, UniProt P30988); assay type: cell membranes, Membrane; conditions: t47d; also: in other assays of this panel Not Active means under 50% inhibition at 10 µM
T2 sequence (P30988 whole entry): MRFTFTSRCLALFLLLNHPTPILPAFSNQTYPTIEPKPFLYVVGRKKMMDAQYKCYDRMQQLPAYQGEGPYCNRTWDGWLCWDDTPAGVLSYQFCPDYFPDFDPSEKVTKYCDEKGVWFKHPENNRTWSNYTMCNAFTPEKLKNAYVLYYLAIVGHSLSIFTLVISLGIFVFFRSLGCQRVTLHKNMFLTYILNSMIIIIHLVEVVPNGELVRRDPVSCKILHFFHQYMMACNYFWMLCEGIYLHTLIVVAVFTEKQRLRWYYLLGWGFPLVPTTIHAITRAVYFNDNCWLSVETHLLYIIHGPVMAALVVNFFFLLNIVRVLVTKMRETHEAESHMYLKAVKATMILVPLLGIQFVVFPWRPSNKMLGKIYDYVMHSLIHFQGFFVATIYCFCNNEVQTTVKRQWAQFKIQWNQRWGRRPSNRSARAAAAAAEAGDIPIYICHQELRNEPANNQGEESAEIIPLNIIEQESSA

[2] = DRUGMATRIX: Serotonin (5-Hydroxytryptamine) 5-HT3 radioligand binding (ligand: [3H] GR-65630); assay type: cell membranes, Membrane; conditions: hek293; Not Active = under 50% inhibition at 10 µM
[3] = target: C-C chemokine receptor type 2 (Homo sapiens, UniProt P41597); assay type: cell membranes, CHO-K1, Membrane; conditions: cho-k1; also: in other assays of this panel Not Active means under 50% inhibition at 10 µM
D(1A) dopamine receptor = D(1A) dopamine receptor (Homo sapiens, UniProt P21728); assay: DRUGMATRIX: Dopamine D1 radioligand binding (ligand: [3H] SCH-23390); assay type: cell membranes, CHO, Membrane; conditions: Not Active = under 50% inhibition at 10 µM; for pIC50: read-out: IC50; for pKi: read-out: Ki; for IC50: cho
[4] = DRUGMATRIX: Glutamate, Kainate radioligand binding (ligand: [3H] Kainic acid); assay type: cell membranes, Rattus norvegicus, Wistar, Brain, Membrane; conditions: Not Active = under 50% inhibition at 10 µM
Neutrophil elastase = target: T3, Neutrophil elastase (Homo sapiens, UniProt P08246); assay type: tissue-based;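 also: inhibition of neutrophil elastase enzyme activity, measured with a p-nitroanilide-linked peptide substrate; in other assays of this panel Not Active means under 50% inhibition at 10 µM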
T3 sequence (P08246 whole entry): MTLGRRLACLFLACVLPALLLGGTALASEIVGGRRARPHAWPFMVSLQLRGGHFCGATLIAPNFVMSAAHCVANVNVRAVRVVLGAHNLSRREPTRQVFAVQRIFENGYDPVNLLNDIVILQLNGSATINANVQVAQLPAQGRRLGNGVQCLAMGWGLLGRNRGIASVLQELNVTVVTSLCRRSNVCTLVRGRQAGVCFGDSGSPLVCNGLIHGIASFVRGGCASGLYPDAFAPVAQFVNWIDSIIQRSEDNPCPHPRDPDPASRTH

Glucocorticoid receptor = target: T4, Glucocorticoid receptor (Homo sapiens, UniProt P04150); conditions: hela s3; also: in other assays of this panel Not Active means under 50% inhibition at 10 µM
T4 sequence (P04150 whole entry): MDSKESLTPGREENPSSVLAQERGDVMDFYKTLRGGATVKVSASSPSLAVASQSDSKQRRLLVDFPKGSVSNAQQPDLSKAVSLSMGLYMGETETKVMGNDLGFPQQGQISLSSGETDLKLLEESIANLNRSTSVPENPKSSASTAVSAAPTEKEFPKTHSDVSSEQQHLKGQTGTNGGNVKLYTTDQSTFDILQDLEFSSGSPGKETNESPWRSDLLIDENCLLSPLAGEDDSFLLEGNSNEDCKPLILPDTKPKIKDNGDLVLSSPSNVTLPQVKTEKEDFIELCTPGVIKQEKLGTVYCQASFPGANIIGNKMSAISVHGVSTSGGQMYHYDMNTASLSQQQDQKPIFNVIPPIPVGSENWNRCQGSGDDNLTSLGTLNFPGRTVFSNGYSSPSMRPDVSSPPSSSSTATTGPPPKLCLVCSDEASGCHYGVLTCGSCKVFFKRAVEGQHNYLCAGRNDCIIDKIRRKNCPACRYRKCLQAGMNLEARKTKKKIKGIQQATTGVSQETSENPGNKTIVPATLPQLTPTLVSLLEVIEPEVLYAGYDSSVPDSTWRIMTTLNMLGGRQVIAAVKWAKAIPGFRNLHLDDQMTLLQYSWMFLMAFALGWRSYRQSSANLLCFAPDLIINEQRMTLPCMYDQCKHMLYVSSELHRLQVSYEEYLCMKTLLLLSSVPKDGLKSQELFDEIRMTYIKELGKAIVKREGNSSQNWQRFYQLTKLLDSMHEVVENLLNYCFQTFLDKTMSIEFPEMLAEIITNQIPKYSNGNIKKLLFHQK

C-C chemokine receptor type 2, sequence (P41597 whole entry): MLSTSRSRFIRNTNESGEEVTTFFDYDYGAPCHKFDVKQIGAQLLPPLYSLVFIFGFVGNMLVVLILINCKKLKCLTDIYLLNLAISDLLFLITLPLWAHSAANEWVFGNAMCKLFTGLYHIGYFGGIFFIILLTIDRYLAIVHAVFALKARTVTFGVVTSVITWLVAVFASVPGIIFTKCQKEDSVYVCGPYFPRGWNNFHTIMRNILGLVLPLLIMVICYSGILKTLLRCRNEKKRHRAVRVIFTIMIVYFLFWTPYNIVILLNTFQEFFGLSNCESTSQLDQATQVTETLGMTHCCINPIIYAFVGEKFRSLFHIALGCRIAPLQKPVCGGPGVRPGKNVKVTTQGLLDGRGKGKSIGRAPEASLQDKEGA
D(1A) dopamine receptor, sequence (P21728 whole entry): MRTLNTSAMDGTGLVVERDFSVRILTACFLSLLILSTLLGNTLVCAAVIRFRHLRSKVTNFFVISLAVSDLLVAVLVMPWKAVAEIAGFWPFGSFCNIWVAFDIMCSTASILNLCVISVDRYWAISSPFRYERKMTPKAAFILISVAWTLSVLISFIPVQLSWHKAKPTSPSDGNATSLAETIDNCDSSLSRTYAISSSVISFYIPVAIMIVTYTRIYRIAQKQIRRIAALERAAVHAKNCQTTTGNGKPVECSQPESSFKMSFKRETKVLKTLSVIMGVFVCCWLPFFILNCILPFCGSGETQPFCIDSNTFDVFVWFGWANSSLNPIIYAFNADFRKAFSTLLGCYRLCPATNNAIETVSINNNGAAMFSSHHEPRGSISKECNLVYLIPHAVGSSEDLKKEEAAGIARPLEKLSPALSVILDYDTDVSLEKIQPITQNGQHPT

Row | Structure (SMILES) | IC50 [1] | IC50 (Calcitonin receptor) | IC50 [2] | Ki [2] | IC50 [3] | pIC50 (D(1A) dopamine receptor) | pKi (D(1A) dopamine receptor) | IC50 [4] | Ki [4] | IC50 (Neutrophil elastase) | IC50 (Glucocorticoid receptor) | IC50 (D(1A) dopamine receptor)
1 | CC(C)[C@@]1(NC(=O)[C@@H]2C[C@@H]3c4cccc5[nH]cc(c45)C[C@H]3N(C)C2)O[C@@]2(O)[C@@H]3CCCN3C(=O)[C@H](Cc3ccccc3)N2C1=O.CS(=O)(=O)O [DIHYDROERGOCRISTINE MESYLATE] | Not Active | Not Active | Not Active | Not Active | Not Active | 5.93 | 6.23 | Not Active | Not Active | Not Active | Not Active | 
2 | O=C(CCCN1CC=C(n2c(=O)[nH]c3ccccc32)CC1)c1ccc(F)cc1 [DROPERIDOL] | Not Active | Not Active | Not Active | Not Active | Not Active | 5.96 | 6.26 | Not Active | Not Active | Not Active | Not Active | 
3 | CC(C)[C@H]1C(=O)N2CCC[C@H]2[C@]2(O)O[C@](NC(=O)[C@@H]3C=C4c5cccc6[nH]cc(c56)C[C@H]4N(C)C3)(C(C)C)C(=O)N12 [ERGOCORNINE] | Not Active | Not Active | Not Active | Not Active | Not Active | 6.53 | 6.83 | Not Active | Not Active | Not Active | Not Active | 
4 | OC(Cn1cncn1)(Cn1cncn1)c1ccc(F)cc1F [FLUCONAZOLE] | Not Active | Not Active | Not Active | Not Active | Not Active |  |  | Not Active | Not Active | Not Active | Not Active | Not Active
5 | N=C(N)NCCN1CCCCCCC1 [GUANETHIDINE] | Not Active | Not Active | Not Active | Not Active | Not Active |  |  | Not Active | Not Active | Not Active | Not Active | Not Active
6 | O=c1[nH]c(=O)n([C@H]2C[C@H](O)[C@@H](CO)O2)cc1I [IDOXURIDINE] | Not Active | Not Active | Not Active | Not Active | Not Active |  |  | Not Active | Not Active | Not Active | Not Active | Not Active
7 | Nc1nc(N)nc(-c2cc(Cl)ccc2Cl)n1.O=C(O)/C=C\C(=O)O [IRSOGLADINE MALEATE] | Not Active | Not Active | Not Active | Not Active | Not Active |  |  | Not Active | Not Active | Not Active | Not Active | Not Active
8 | Cc1ccccc1N1C(=O)c2cc(S(N)(=O)=O)c(Cl)cc2NC1C (stereo not drawn) [METOLAZONE] | Not Active | Not Active | Not Active | Not Active | Not Active |  |  | Not Active | Not Active | Not Active | Not Active | Not Active
9 | COCCc1ccc(OCC(O)CNC(C)C)cc1 (stereo not drawn) [METOPROLOL] | Not Active | Not Active | Not Active | Not Active | Not Active |  |  | Not Active | Not Active | Not Active | Not Active | Not Active
10 | CCn1cc(C(=O)O)c(=O)c2cc(F)c(N3CCNCC3)cc21 [NORFLOXACIN] | Not Active | Not Active | Not Active | Not Active | Not Active |  |  | Not Active | Not Active | Not Active | Not Active | Not Active
11 | NC1=NC(=O)C(c2ccccc2)O1 (stereo not drawn) [PEMOLINE] | Not Active | Not Active | Not Active | Not Active | Not Active |  |  | Not Active | Not Active | Not Active | Not Active | Not Active
12 | Nc1nc2c(ncn2CCC(CO)CO)c(=O)[nH]1 [PENCICLOVIR] | Not Active | Not Active | Not Active | Not Active | Not Active |  |  | Not Active | Not Active | Not Active | Not Active | Not Active
13 | C=C(C)C1(O)OC(=O)C=C1OC (stereo not drawn) [PENICILLIC ACID] | Not Active | Not Active | Not Active | Not Active | Not Active |  |  | Not Active | Not Active | Not Active | Not Active | Not Active
14 | CC1(C)S[C@@H]2[C@H](NC(=O)Cc3ccccc3)C(=O)N2[C@H]1C(=O)O [PENICILLIN G] | Not Active | Not Active | Not Active | Not Active | Not Active |  |  | Not Active | Not Active | Not Active | Not Active | Not Active
15 | C1CCC(C(CC2CCCCN2)C2CCCCC2)CC1 (stereo not drawn) [PERHEXILINE] | Not Active | Not Active | Not Active | Not Active | Not Active |  |  | Not Active | Not Active | Not Active | Not Active | Not Active
16 | CCOc1ccc(NC(C)=O)cc1 [PHENACETIN] | Not Active | Not Active | Not Active | Not Active | Not Active |  |  | Not Active | Not Active | Not Active | Not Active | Not Active
17 | Cc1ccc(N(CC2=NCCN2)c2cccc(O)c2)cc1 [PHENTOLAMINE] | Not Active | Not Active | Not Active | Not Active | Not Active |  |  | Not Active | Not Active | Not Active | Not Active | Not Active
18 | CNNCc1ccc(C(=O)NC(C)C)cc1 [PROCARBAZINE] | Not Active | Not Active | Not Active | Not Active | Not Active |  |  | Not Active | Not Active | Not Active | Not Active | Not Active
19 | CC(O)CO (stereo not drawn) [PROPYLENE GLYCOL] | Not Active | Not Active | Not Active | Not Active | Not Active |  |  | Not Active | Not Active | Not Active | Not Active | Not Active
